Molecular target: T1, Trx-rHelja (Helianthus annuus, UniProt A0A059VAE5)
T1 construct: N-terminal thioredoxin, His6 and enterokinase-site tags kept; E. coli Rosetta-gami2 (DE3) pLysS; about 35 kDa fusion (Helja about 20 kDa)
Experiment: affinity chromatography on D-mannose-agarose, elution with mannose, SDS-PAGE
Format: binding
Conditions: 50 mM Tris-HCl pH 7.5, 100 mM NaCl; D-mannose immobilised on agarose; eluted with 200 mM free mannose

T1 sequence (A0A059VAE5 entry or part of it): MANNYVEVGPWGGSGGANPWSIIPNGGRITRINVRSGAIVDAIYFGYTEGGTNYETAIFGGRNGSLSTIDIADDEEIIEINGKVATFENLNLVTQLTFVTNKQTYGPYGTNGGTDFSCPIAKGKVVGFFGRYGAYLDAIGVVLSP

OC[C@H]1OC(O)[C@@H](O)[C@@H](O)[C@@H]1O (stereo partly shown) [mannose]
affinity chromatography on D-mannose-agarose, elution with mannose, SDS-PAGE: the recombinant protein was bounded to the matrix and eluted with mannose
